Results from patent US8415312B2, “Compound which is a nystatin derivative” (Biosergen AS, priority 2007, dated 2013).
Converted amounts (≈) assume the structure as drawn.

How the values were obtained:
Test in all cases: Antifungal susceptibility study (1), broth microdilution MIC
Format in all cases: cell-based
[1] = system: Fusarium oxysporum VKM F-140; conditions: lowest concentration preventing any visible growth, read at 48 hours, 35° C., RPMI 1640 pH 7.0
Method: (§1) ACROS ORGANICS, New Jersey, USA), pH 7.0, was used in study. […] Then these DMSO solutions were diluted 50-fold (first 10-fold and then 5-fold) in the test medium. […] The solutions were prepared just before using. The organisms used for susceptibility testing were: Candida albicans ATCC 14053, Cryptococcus humicolus ATCC 9949, Aspergillus niger ATCC 16404 and Fusarium oxysporum VKM F-140 (=CMI, IMI 90473). Organisms were stored on potato dextrose agar […] 50% glycerol solution at -70° C. For short-term storage, stock cultures were stored on agar […] 4° C. The cultures of yeasts were sub-cultured onto Sabouraud dextrose (SAB) agar and incubated for 24 hours at 35° C. (Candida albicans) or for 48 hours at 25° C. (Cryptococcus humicolus) to obtain a freshly grown pure culture. The cultures of moulds were sub-cultured onto potato dextrose agar and incubated for 7 days at 35° C. […] (Fusarium oxysporum) to ensure maximum sporulation. […] Finally, the suspensions were vortexed for 15 s to break up clumps of cells and then filtered through four layers of sterile gauze. The densities of conidial spore suspensions was measured at 530 nm and adjusted to 0.09-0.11 for Aspergillus niger and 0.15-0.17 for Fusarium oxysporum. These suspensions were diluted 1:50 with the standard medium. […] Inoculum quantitation was performed by plating dilution of the inoculum on Sabouraud dextrose agar to determine the viable number of CFU per milliliter. Sterile 96-well flat-bottomed microtitration plates were used for testing. 100 μl of diluted inocula were dispensed into each microdilution well containing 100 μl of the double dilutions of compounds. Drug-free and yeast/mould-free controls were included. Microdilution trays were incubated at 35° C. (Candida albicans and moulds) or 25° C. (Cryptococcus humicolus) without agitation and observed for the presence or absence of visible growth. […] Minimal inhibitory concentrations (MICs) were read at 48 hours.

[2] = system: Aspergillus niger ATCC 16404; conditions: lowest concentration preventing any visible growth, read at 48 hours, 35° C., RPMI 1640 pH 7.0
Method: as §1

[3] = system: Candida albicans ATCC 14053; conditions: lowest concentration preventing any visible growth, read at 48 hours, 35° C., RPMI 1640 pH 7.0
Method: (§2) ACROS ORGANICS, New Jersey, USA), pH 7.0, was used in study. […] Then these DMSO solutions were diluted 50-fold (first 10-fold and then 5-fold) in the test medium. […] The solutions were prepared just before using. The organisms used for susceptibility testing were: Candida albicans ATCC 14053, Cryptococcus humicolus ATCC 9949, Aspergillus niger ATCC 16404 and Fusarium oxysporum VKM F-140 (=CMI, IMI 90473). Organisms were stored on potato dextrose agar […] 50% glycerol solution at -70° C. For short-term storage, stock cultures were stored on agar […] 4° C. The cultures of yeasts were sub-cultured onto Sabouraud dextrose (SAB) agar and incubated for 24 hours at 35° C. (Candida albicans) or for 48 hours at 25° C. (Cryptococcus humicolus) to obtain a freshly grown pure culture. The cultures of moulds were sub-cultured onto potato dextrose agar and incubated for 7 days at 35° C. […] (Fusarium oxysporum) to ensure maximum sporulation. […] Inoculum quantitation was performed by plating dilution of the inoculum on Sabouraud dextrose agar to determine the viable number of CFU per milliliter. Sterile 96-well flat-bottomed microtitration plates were used for testing. 100 μl of diluted inocula were dispensed into each microdilution well containing 100 μl of the double dilutions of compounds. Drug-free and yeast/mould-free controls were included. Microdilution trays were incubated at 35° C. (Candida albicans and moulds) or 25° C. (Cryptococcus humicolus) without agitation and observed for the presence or absence of visible growth. […] Minimal inhibitory concentrations (MICs) were read at 48 hours.

[4] = system: Cryptococcus humicolus ATCC 9949; conditions: lowest concentration preventing any visible growth, read at 48 hours, 25° C., RPMI 1640 pH 7.0
Method: as §2

| SMILES | MIC Fusarium oxysporum VKM F-140 [1] | MIC Aspergillus niger ATCC 16404 [2] | MIC Candida albicans ATCC 14053 [3] | MIC Cryptococcus humicolus ATCC 9949 [4] |
| --- | --- | --- | --- | --- |
| CC1C=CC=CC=CC=CC=CC=CC=CC(OC2OC(C)C(O)C(NC(=O)C(N)CCCCN)C2O)CC2OC(O)(CC(O)C(O)CCC(O)CC(O)CC(O)CC(=O)OC(C)C(C)C1O)CC(O)C2C(=O)NCCCN(C)C [Compound 33, N-L-lysyl S44HP DMAP-Amide] | 2 µg/mL (≈ 1.76 µM) | 1 µg/mL (≈ 0.88 µM) | 1 µg/mL (≈ 0.88 µM) | 1 µg/mL (≈ 0.88 µM) |
| CC1C=CC=CC=CC=CC=CC=CC=CC(OC2OC(C)C(O)C(NCc3ccc(N(C)C)cc3)C2O)CC2OC(O)(CC(O)C(O)CCC(O)CC(O)CC(O)CC(=O)OC(C)C(C)C1O)CC(O)C2C(=O)NCCCN(C)C (centres unmarked) [Compound 32] | 8 µg/mL (≈ 7.01 µM) | 2 µg/mL (≈ 1.75 µM) | 2 µg/mL (≈ 1.75 µM) | 2 µg/mL (≈ 1.75 µM) |
| CC1C=CC=CC=CC=CC=CC=CC=CC(OC2OC(C)C(O)C(NC(=O)C(N)CCCCN)C2O)CC2OC(O)(CC(O)C(O)CCC(O)CC(O)CC(O)CC(=O)OC(C)C(C)C1O)CC(O)C2C(=O)NCCCO (centres unmarked) [Compound 38] | 4 µg/mL (≈ 3.61 µM) | 2 µg/mL (≈ 1.8 µM) | 1 µg/mL (≈ 0.901 µM) | 1 µg/mL (≈ 0.901 µM) |
| CC1O[C@@H](O[C@H]2/C=C/C=C/C=C/C=C/C=C/C=C/C=C/[C@H](C)[C@@H](O)[C@@H](C)[C@H](C)OC(=O)C[C@H](O)C[C@H](O)C[C@H](O)CC[C@@H](O)[C@H](O)C[C@]3(O)C[C@H](O)[C@@H](C(=O)NCCN(C)C)[C@H](C2)O3)[C@H](O)C(NC(=O)c2ccc(CN)cc2)[C@@H]1O (some centres unmarked) [Compound 46] | 4 µg/mL (≈ 3.55 µM) | 2 µg/mL (≈ 1.77 µM) | 2 µg/mL (≈ 1.77 µM) | 2 µg/mL (≈ 1.77 µM) |
| COC(=O)C(C)NC(=O)C1C(O)CC2(O)CC(O)C(O)CCC(O)CC(O)CC(O)CC(=O)OC(C)C(C)C(O)C(C)C=CC=CC=CC=CC=CC=CC=CC(OC3OC(C)C(O)C(N)C3O)CC1O2 (centres unmarked) [Compound 10] | 8 µg/mL (≈ 7.93 µM) | 4 µg/mL (≈ 3.96 µM) | 2 µg/mL (≈ 1.98 µM) | 2 µg/mL (≈ 1.98 µM) |
| CC1O[C@@H](O[C@H]2/C=C/C=C/C=C/C=C/C=C/C=C/C=C/[C@H](C)[C@@H](O)[C@@H](C)[C@H](C)OC(=O)C[C@H](O)C[C@H](O)C[C@H](O)CC[C@@H](O)[C@H](O)C[C@]3(O)C[C@H](O)[C@@H](C(=O)NCCN(C)C)[C@H](C2)O3)[C@H](O)C(NCc2ccc(N(C)C)cc2)[C@@H]1O (some centres unmarked) [Compound 43] | 4 µg/mL (≈ 3.55 µM) | 1 µg/mL (≈ 0.887 µM) | 1 µg/mL (≈ 0.887 µM) | 1 µg/mL (≈ 0.887 µM) |
| CC1O[C@@H](O[C@H]2/C=C/C=C/C=C/C=C/C=C/C=C/C=C/[C@H](C)[C@@H](O)[C@@H](C)[C@H](C)OC(=O)C[C@H](O)C[C@H](O)C[C@H](O)CC[C@@H](O)[C@H](O)C[C@]3(O)C[C@H](O)[C@@H](C(=O)O)[C@H](C2)O3)[C@H](O)C(NC(=O)c2ccc(CN)cc2)[C@@H]1O (some centres unmarked) [Compound 47, N-(4-Aminomethylbenzoyl) S44HP] | 16 µg/mL (≈ 15.1 µM) | 4 µg/mL (≈ 3.78 µM) | 2 µg/mL (≈ 1.89 µM) | 2 µg/mL (≈ 1.89 µM) |
| COC(=O)C(NC(=O)C1C(O)CC2(O)CC(O)C(O)CCC(O)CC(O)CC(O)CC(=O)OC(C)C(C)C(O)C(C)C=CC=CC=CC=CC=CC=CC=CC(OC3OC(C)C(O)C(N)C3O)CC1O2)C(C)C (centres unmarked) [Compound 8] | 8 µg/mL (≈ 7.71 µM) | 4 µg/mL (≈ 3.86 µM) | 2 µg/mL (≈ 1.93 µM) | 2 µg/mL (≈ 1.93 µM) |
| CC1O[C@@H](O[C@H]2/C=C/C=C/C=C/C=C/C=C/C=C/C=C/[C@H](C)[C@@H](O)[C@@H](C)[C@H](C)OC(=O)C[C@H](O)C[C@H](O)C[C@H](O)CC[C@@H](O)[C@H](O)C[C@]3(O)C[C@H](O)[C@@H](C(=O)NCCN(C)C)[C@H](C2)O3)[C@H](O)C(NC(=O)[C@@H](N)CCCCN)[C@@H]1O.Cl (some centres unmarked) [Compound 44] | 4 µg/mL | 2 µg/mL | 1 µg/mL | 2 µg/mL |
| CC1C=CC=CC=CC=CC=CC=CC=CC(OC2OC(C)C(O)C(NCC3(O)OCC(O)C(O)C3O)C2O)CC2OC(O)(CC(O)C(O)CCC(O)CC(O)CC(O)CC(=O)OC(C)C(C)C1O)CC(O)C2C(=O)NCCCN(C)C (centres unmarked) [Compound 31, N-tagatopyronosyl S44HP DMAP amide] | 4 µg/mL (≈ 3.42 µM) | 2 µg/mL (≈ 1.71 µM) | 1 µg/mL (≈ 0.854 µM) | 2 µg/mL (≈ 1.71 µM) |
| CC1O[C@@H](O[C@H]2/C=C/C=C/C=C/C=C/C=C/C=C/C=C/[C@H](C)[C@@H](O)[C@@H](C)[C@H](C)OC(=O)C[C@H](O)C[C@H](O)C[C@H](O)CC[C@@H](O)[C@H](O)C[C@]3(O)C[C@H](O)[C@@H](C)[C@H](C2)O3)[C@H](O)C(N)[C@@H]1O.N[C@@H](CC(=O)O)C(=O)O (some centres unmarked) [Compound 55] | 2 µg/mL | 2 µg/mL | 2 µg/mL | 2 µg/mL |
| CC1C=CC=CC=CC=CC=CC=CC=CC(OC2OC(C)C(O)C(NCc3ccc(N(C)C)cc3)C2O)CC2OC(O)(CC(O)C(O)CCC(O)CC(O)CC(O)CC(=O)OC(C)C(C)C1O)CC(O)C2C(=O)NCCCO (centres unmarked) [Compound 37] | 4 µg/mL (≈ 3.59 µM) | 2 µg/mL (≈ 1.79 µM) | 2 µg/mL (≈ 1.79 µM) | 1 µg/mL (≈ 0.897 µM) |
| CC1C=CC=CC=CC=CC=CC=CC=CC(OC2OC(C)C(O)C(NCC3(O)OCC(O)C(O)C3O)C2O)CC2OC(O)(CC(O)C(O)CCC(O)CC(O)CC(O)CC(=O)OC(C)C(C)C1O)CC(O)C2C(=O)NCCCO (centres unmarked) [Compound 36] | 16 µg/mL (≈ 14 µM) | 4 µg/mL (≈ 3.5 µM) | 4 µg/mL (≈ 3.5 µM) | 4 µg/mL (≈ 3.5 µM) |
| CC1O[C@@H](O[C@H]2/C=C/C=C/C=C/C=C/C=C/C=C/C=C/[C@H](C)[C@@H](O)[C@@H](C)[C@H](C)OC(=O)C[C@H](O)C[C@H](O)C[C@H](O)CC[C@@H](O)[C@H](O)C[C@]3(O)C[C@H](O)[C@@H](C(=O)NCCN(C)C)[C@H](C2)O3)[C@H](O)C(NCC2(O)OC[C@@H](O)[C@H](O)[C@@H]2O)[C@@H]1O (some centres unmarked) [Compound 42, N-tagatopyronosyl S44HP DMAE amide] | 2 µg/mL (≈ 1.73 µM) | 1 µg/mL (≈ 0.865 µM) | 0.5 µg/mL (≈ 0.432 µM) | 1 µg/mL (≈ 0.865 µM) |
| CC1C=CC=CC=CC=CC=CC=CC=CC(OC2OC(C)C(O)C(NCC3(O)OCC(O)C(O)C3O)C2O)CC2OC(O)(CC(O)C(O)CCC(O)CC(O)CC(O)CC(=O)OC(C)C(C)C1O)CC(O)C2C(=O)NCCCN(C)C (centres unmarked) [Compound 30] | 4 µg/mL (≈ 3.42 µM) | 1 µg/mL (≈ 0.854 µM) | 1 µg/mL (≈ 0.854 µM) | 1 µg/mL (≈ 0.854 µM) |
| CC1C=CC=CC=CC=CC=CC=CC=CC(OC2OC(C)C(O)C(NC(=O)c3ccc(CN)cc3)C2O)CC2OC(O)(CC(O)C(O)CCC(O)CC(O)CC(O)CC(=O)OC(C)C(C)C1O)CC(O)C2C(=O)NCCCO (centres unmarked) [Compound 40] | 16 µg/mL (≈ 14.4 µM) | 4 µg/mL (≈ 3.59 µM) | 2 µg/mL (≈ 1.79 µM) | 2 µg/mL (≈ 1.79 µM) |
| CC1C=CC=CC=CC=CC=CC=CC=CC(OC2OC(C)C(O)C(NCCCN)C2O)CC2OC(O)(CC(O)C(O)CCC(O)CC(O)CC(O)CC(=O)OC(C)C(C)C1O)CC(O)C2C(=O)O (centres unmarked) [Compound 21] | 4 µg/mL (≈ 4.08 µM) | 4 µg/mL (≈ 4.08 µM) | 2 µg/mL (≈ 2.04 µM) | 4 µg/mL (≈ 4.08 µM) |
